Measured values: patent US20140287916A1, “PESTICIDAL COMPOUNDS” (SYNGENTA PARTICIPATIONS AG, priority 2011, published 2014)

| melting point [°C] | SMILES |
| --- | --- |
| 83 to 84 | O=C(NCC1(c2nc(C3CC3)cs2)CC1)c1ccccc1C(F)(F)F [A.10, N-[[1-(4-cyclopropylthiazol-2-yl)cyclopropyl]methyl]-2-(trifluoromethyl)benzamide] |
| 146 to 147 | O=C(NCC1(c2nc(Cl)cs2)CC1)c1cccnc1C(F)(F)F [A.21, N-[[1-(4-chlorothiazol-2-yl)cyclopropyl]methyl]-2-(trifluoromethyl)pyridine-3-carboxamide] |
| 94 to 96 | O=C(NCC1(c2ncc(C(F)(F)F)s2)CC1)c1ccccc1C(F)(F)F [A.29, 2-(trifluoromethyl)-N-[[1-[5-(trifluoromethyl)thiazol-2-yl]cyclopropyl]methyl]benzamide] |
